# According to the supplement of paper PMC10307832:
# Columns and labels:
# Test in all cases: relative viability (nuclei count vs DMSO), 5 days (fraction); higher = more cells survive
# Bleomycin + Phenformin = compound: CC1=C(N=C(N=C1N)[C@H](CC(=O)N)NC[C@@H](C(=O)N)N)C(=O)N[C@@H]([C@H](C2=CN=CN2)OC3C(C(C(C(O3)CO)O)O)OC4C(C(C(C(O4)CO)O)OC(=O)N)O)C(=O)N[C@H](C)[C@H]([C@H](C)C(=O)N[C@@H]([C@@H](C)O)C(=O)NCCC5=NC(=CS5)C6=NC(=CS6)C(=O)NCCC[S+](C)C)O [Bleomycin] + N=C(N)NC(=N)NCCc1ccccc1 [Phenformin] (partner 250 µM); conditions: main component drawn
# In short: (§1)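 Lung cancer cell lines were pin-tool dosed in 1536-well plates on the day after seeding, with either a lone drug or a fixed anchor-drug dose plus five library-drug doses (not always all listed) in √10 steps. Nuclei were counted on 4× images after 5 days. Relative viability is the ratio of treated-well to vehicle-well nuclei counts, with each value a median of duplicate plates.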
# Bleomycin + Luminespib = compound: CC1=C(N=C(N=C1N)[C@H](CC(=O)N)NC[C@@H](C(=O)N)N)C(=O)N[C@@H]([C@H](C2=CN=CN2)OC3C(C(C(C(O3)CO)O)O)OC4C(C(C(C(O4)CO)O)OC(=O)N)O)C(=O)N[C@H](C)[C@H]([C@H](C)C(=O)N[C@@H]([C@@H](C)O)C(=O)NCCC5=NC(=CS5)C6=NC(=CS6)C(=O)NCCC[S+](C)C)O [Bleomycin] + CCNC(=O)c1noc(-c2cc(C(C)C)c(O)cc2O)c1-c1ccc(CN2CCOCC2)cc1 [Luminespib] (partner 0.01 µM); conditions: main component drawn
# In short: as §1
# Etoposide + Linsitinib = compound: COc1cc([C@@H]2c3cc4c(cc3[C@@H](O[C@@H]3O[C@@H]5CO[C@@H](C)O[C@H]5[C@H](O)[C@H]3O)[C@H]3COC(=O)[C@H]23)OCO4)cc(OC)c1O [Etoposide] + C[C@]1(O)C[C@@H](c2nc(-c3ccc4ccc(-c5ccccc5)nc4c3)c3c(N)nccn32)C1 [Linsitinib] (partner 1 µM)
# In short: as §1
# Bleomycin + Decitabine = compound: CC1=C(N=C(N=C1N)[C@H](CC(=O)N)NC[C@@H](C(=O)N)N)C(=O)N[C@@H]([C@H](C2=CN=CN2)OC3C(C(C(C(O3)CO)O)O)OC4C(C(C(C(O4)CO)O)OC(=O)N)O)C(=O)N[C@H](C)[C@H]([C@H](C)C(=O)N[C@@H]([C@@H](C)O)C(=O)NCCC5=NC(=CS5)C6=NC(=CS6)C(=O)NCCC[S+](C)C)O [Bleomycin] + Nc1ncn([C@H]2C[C@H](O)[C@@H](CO)O2)c(=O)n1 [Decitabine] (partner 2 µM); conditions: main component drawn
# In short: as §1
Cell Line,relative viability (Bleomycin + Phenformin; first compound 0.01 µM),relative viability (Bleomycin + Phenformin; first compound 0.03162 µM),relative viability (Bleomycin + Phenformin; first compound 0.1 µM),relative viability (Bleomycin + Phenformin; first compound 0.3162 µM),relative viability (Bleomycin + Phenformin; first compound 1 µM),relative viability (Bleomycin + Luminespib; first compound 0.01 µM),relative viability (Bleomycin + Luminespib; first compound 0.03162 µM),relative viability (Bleomycin + Luminespib; first compound 0.1 µM),relative viability (Bleomycin + Luminespib; first compound 0.3162 µM),relative viability (Bleomycin + Luminespib; first compound 1 µM),relative viability (Etoposide + Linsitinib; first compound 0.01 µM),relative viability (Etoposide + Linsitinib; first compound 0.03162 µM),relative viability (Etoposide + Linsitinib; first compound 0.1 µM),relative viability (Etoposide + Linsitinib; first compound 0.3162 µM),relative viability (Etoposide + Linsitinib; first compound 1 µM),relative viability (Bleomycin + Decitabine; first compound 0.01 µM),relative viability (Bleomycin + Decitabine; first compound 0.03162 µM),relative viability (Bleomycin + Decitabine; first compound 0.1 µM),relative viability (Bleomycin + Decitabine; first compound 0.3162 µM),relative viability (Bleomycin + Decitabine; first compound 1 µM)
NCI-H2085,0.599,0.595,0.55,0.329,0.306,0.408,0.436,0.369,0.314,0.279,0.8,0.883,0.859,0.51,0.279,0.558,0.551,0.418,0.421,0.339
NCI-H1793,0.389,0.417,0.349,0.211,0.131,0.169,0.157,0.286,0.175,0.153,0.692,0.989,,0.716,0.429,0.483,0.472,0.37,0.175,0.246
LC-2-ad,0.493,0.536,0.385,0.283,0.238,0.68,0.572,0.563,0.29,0.262,0.809,0.976,0.863,0.624,0.248,0.72,0.737,0.541,0.309,0.292
COR-L 105,0.49,0.394,0.399,0.315,0.35,0.665,0.743,0.562,0.555,0.386,0.874,0.958,1.02,0.769,0.713,0.594,0.588,0.519,0.419,0.371
NCI-H1355,0.432,0.487,0.429,0.27,0.194,0.672,0.606,0.698,0.304,0.289,0.732,0.945,0.466,0.585,0.334,0.319,0.341,0.371,0.314,0.2
H3255,0.35,0.372,0.367,0.301,0.301,0.817,0.878,0.652,0.52,0.351,0.872,1.11,0.815,0.713,0.336,0.582,0.631,0.586,0.414,0.342
NCI-H1993,0.501,0.512,0.478,0.419,0.44,0.738,0.497,0.716,0.57,0.41,0.81,0.692,0.7,0.662,0.537,0.602,0.507,0.556,0.519,0.436
NCI-H1734,0.327,0.28,0.28,0.177,0.131,0.167,0.187,0.198,0.13,0.147,0.746,0.932,0.725,0.688,0.509,0.453,0.477,0.414,0.272,0.2
HOP-62,0.395,0.447,0.239,0.185,0.105,0.66,0.705,0.462,0.254,0.193,0.963,1.05,0.657,0.631,0.269,0.157,0.197,0.137,0.154,0.118
LOU-NH91,0.686,0.488,0.515,0.383,0.343,0.307,0.315,0.307,0.282,0.298,0.892,0.943,0.702,0.728,0.538,0.624,0.611,0.472,0.38,0.406
NCI-H23,0.518,0.586,0.357,0.207,0.17,0.228,0.2,0.211,0.176,0.216,0.504,0.645,0.364,0.409,0.191,0.307,0.265,0.235,0.184,0.177
PC-3 [JPC-3],0.476,0.511,0.475,0.364,0.336,0.685,0.665,0.621,0.55,0.418,0.965,0.991,0.952,0.933,0.84,0.806,0.69,0.704,0.621,0.547
NCI-H1437,0.248,0.283,0.287,0.229,0.212,1.01,0.999,1,0.63,0.585,0.993,1.07,0.984,0.566,0.262,0.472,0.527,0.518,0.428,0.377
NCI-H520,0.315,0.577,0.4,0.279,0.35,0.227,0.196,0.218,0.24,0.213,0.927,1.04,1.1,0.895,0.9,0.501,0.54,0.456,0.424,0.416
NCI-H1666,0.528,0.516,0.494,0.344,0.302,0.733,0.657,0.583,0.395,0.436,0.906,0.765,0.523,0.362,0.333,0.699,0.56,0.505,0.442,0.388
NCI-H1651,0.314,0.298,0.303,0.17,0.189,0.538,0.574,0.402,0.257,0.205,0.885,0.922,0.864,0.331,0.134,0.619,0.461,0.477,0.333,0.192
NCI-H1755,0.562,0.589,0.593,0.507,0.39,0.582,0.695,0.22,0.33,0.244,0.985,1.03,0.974,0.951,0.858,0.667,0.706,0.651,0.561,0.506
NCI-H727,0.65,0.621,0.469,,0.502,0.375,0.376,0.357,,0.223,0.239,0.286,0.3,0.337,0.349,0.938,0.686,0.893,0.459,0.776
HARA,0.432,0.503,0.493,0.361,0.178,0.682,0.751,0.705,0.442,0.543,0.892,1.15,1.04,0.738,0.182,0.513,0.534,0.473,0.313,0.335
NCI-H647,0.209,0.207,0.148,0.078,0.0537,0.111,0.169,0.104,0.0882,0.0947,1.14,1.15,1.13,0.416,0.164,0.289,0.183,0.152,0.0939,0.0806
NCI-H2347,0.374,0.437,0.222,0.255,0.286,0.275,0.381,0.431,0.235,0.385,1.23,1.08,0.592,0.523,0.408,0.572,0.635,0.543,0.514,0.488
LCLC-97TM1,0.337,0.401,0.241,0.192,0.173,0.519,0.635,0.51,0.269,0.187,,0.193,0.122,0.151,0.1,0.2,0.156,0.168,0.158,0.0988
EPLC-272H,0.247,0.286,0.228,0.173,0.116,0.361,0.23,0.203,0.145,0.133,1.29,1.12,0.693,1.14,0.504,0.358,0.343,0.301,0.171,0.129
NCI-H1915,0.301,0.301,0.254,0.15,0.14,0.533,0.568,0.398,0.235,0.145,1.1,1.16,1.06,0.994,0.851,0.259,0.237,0.238,0.193,0.141
NCI-H3122,0.341,0.379,0.5,0.194,0.198,0.103,0.145,0.101,0.111,0.0599,1.04,1.05,1.03,0.88,0.449,0.441,0.49,0.358,0.324,0.26
NCI-H441,0.782,0.906,0.807,0.376,0.292,0.31,0.331,0.251,0.223,0.216,0.51,0.474,0.292,0.179,0.148,0.233,0.238,0.221,0.217,0.224
NCI-H1395,0.404,0.411,0.456,0.325,0.351,0.648,0.648,0.54,0.397,0.47,1,1.33,0.836,0.897,0.656,0.563,0.593,0.513,0.394,0.305
NCI-H358,0.343,0.352,0.325,0.171,0.147,0.307,0.251,0.27,0.23,0.283,0.622,0.792,0.561,0.202,0.181,0.198,0.271,0.189,0.172,0.152
PC-14,0.433,0.341,0.197,0.0557,0.0309,0.148,0.144,0.121,0.116,0.124,1.01,1.05,0.956,0.838,0.507,0.153,0.158,0.0921,0.0512,0.0367
